Where two headings read alike, the source gives them in different places.
Columns and labels:
[1] = tested on: Green Peach Aphid (Myzus persicae); assay: Insecticidal test for green peach aphid in foliar spray assay on cabbage; assay type: in vivo; details: 72 h, read-out: Rating against green peach aphid on cabbage (foliar spray)
Procedure: Compounds 1-67 were tested against green peach aphid using procedures described hereinafter.
Insecticidal Test for Green Peach Aphid (Myzus persicae) in Foliar Spray Assay
Cabbage seedlings grown in 3-inch pots, with 2-3 small (3-5 cm) true leaves, were used as test substrate. The seedlings were infested with 20-50 green peach aphids (wingless adult and nymph) 1-2 d prior to chemical application. Four seedlings were used for each treatment. Compounds (2 mg) were dissolved in 2 mL of acetone-methanol (1:1) solvent, forming stock solutions of 1000 ppm. The stock solutions were diluted 5× with 0.025% Tween 20 in H2O to obtain a solution at 200 ppm. A hand-held Devilbiss aspirator sprayer was used for spraying a solution to both sides of cabbage leaves until runoff. Reference plants (solvent check) were sprayed with the diluent only. Treated plants were held in a holding room for 3 d at approximately 23° C. and 40% RH prior to grading. Evaluation was conducted by counting the number of live aphids per plant under a microscope. Insecticidal activity was measured by using Abbott's correction formula: Corrected % Control=100*(X−Y)/X • where X=No. of live aphids on solvent check plants • Y=No. of live aphids on treated plants

[2] = 200 ppm foliar spray on cabbage seedlings, graded after 3 d, corrected % control (Abbott)

melting point [°C]	SMILES	pest or weed control at 200 ppm [1, 2] [%]	pest or weed control at 200 ppm ([1]; foliar) [%]
	CCNC(=S)N=S(C)(=O)C(C)c1ccc(C(F)(F)F)nc1 (stereo not drawn) [Compound 6]	80 to 100	
	CC(c1ccc(C(F)(F)F)nc1)S(C)(=O)=NC(=S)N(C)C (stereo not drawn) [Compound 23, N,N-dimethyl-N′-(methyl(oxido){1-[6-(trifluoromethyl)pyridin-3-yl]ethyl}-λ^4-sulfanylidene)thiourea]	80 to 100	
	CC(c1ccc(C(F)(F)F)nc1)S(C)(=O)=NC(=S)N1CCCCC1 (stereo not drawn) [Compound 26]	80 to 100	
	COc1ccc(C(=O)NC(=S)N=S(C)(=O)C(C)c2ccc(C(F)(F)F)nc2)cc1 (stereo not drawn) [Compound 17]	80 to 100	
149 to 151	CC(c1ccc(C(F)(F)F)nc1)S(C)(=O)=NC(=S)Nc1ccc(OC(F)(F)F)cc1 (stereo not drawn) [Compound 21]	< 80	
	CC(=O)O/N=C(\N)N=S(C)(=O)C(C)c1ccc(C(F)(F)F)nc1 (stereo not drawn) [Compound 44, N″-(acetyloxy)-N-(methyl(oxido){1-[6-(trifluoromethyl)pyridin-3-yl]ethyl}-λ^4-sulfanylidene)guanidine]	80 to 100	
167 to 169	COc1ccc(NC(=S)N=S(C)(=O)C(C)c2ccc(C(F)(F)F)nc2)cc1 (stereo not drawn) [Compound 5]	< 80	
	CC(c1ccc(C(F)(F)F)nc1)S(C)(=O)=NC(=S)NCc1ccco1 (stereo not drawn) [Compound 8]	80 to 100	
	CC(C)O/N=C(\N)N=S(C)(=O)C(C/C=C/Cl)c1ccc(Cl)nc1 (stereo not drawn) [Compound 64, N-[[(3E)-4-Chloro-1-(6-chloropyridin-3-yl)but-3-enyl](methyl)oxido-λ^4-sulfanylidene]-N″-isopropoxyguanidine]	< 80	
	CC(C)O/N=C(\N)N=S(C)(=O)C(C)c1ccc(C(F)(F)F)nc1 (stereo not drawn) [Compound 50]	80 to 100	
	CCO/N=C(\N)N=S(C)(=O)C(C)c1ccc(C(F)(F)F)nc1 (stereo not drawn) [Compound 49]	80 to 100	
	COC(=O)C(C)NC(=S)N=S(C)(=O)C(C)c1ccc(C(F)(F)F)nc1 (stereo not drawn) [Compound 10]	80 to 100	
	CC(c1ccc(C(F)(F)F)nc1)S(C)(=O)=N/C(N)=N/OCc1ccc(Cl)cc1 (stereo not drawn) [Compound 46, N′-[(4-chlorobenzyl)oxy]-N-(methyl(oxido) {1-[6-(trifluoromethyl)pyridin-3-yl]ethyl}-λ^4-sulfanylidene)guanidine]	80 to 100	
	CC(c1ccc(C(F)(F)F)nc1)S(C)(=O)=NC(=S)Nc1cccnc1 (stereo not drawn) [Compound 4, N-(methyl(oxido){1-[6-(trifluoromethyl)pyridin-3-yl]ethyl}-λ^4-sulfanylidene)-N′-pyridin-3-ylthiourea]	< 80	
	CN/C(N=S(C)(=O)C(C)c1ccc(C(F)(F)F)nc1)=N\OC (stereo not drawn) [Compound 63, N″-methoxy-N-methyl-N′-(methyl(oxido){1-[6-(trifluoromethyl)pyridin-3-yl]ethyl}-λ^4-sulfanylidene)guanidine]	80 to 100	
	CS(=O)(Cc1ccc(C(F)(F)F)nc1)=N/C(N)=N/O (stereo not drawn) [Compound 42, N′-hydroxy-N-(methyl(oxido){[6-(trifluoromethyl)pyridin-3-yl]methyl}-λ^4-sulfanylidene)guanidine]	80 to 100	
	CS(=O)(Cc1ccc(C(F)(F)F)nc1)=NC(N)=S (stereo not drawn) [Compound 29, N-(methyl(oxido){[6-(trifluoromethyl)pyridin-3-yl]methyl}-λ^4-sulfanylidene)thiourea]	80 to 100	
	CCOC(=O)NC(=S)N=S(C)(=O)C(C)c1ccc(C(F)(F)F)nc1 (stereo not drawn) [Compound 19]		80 to 100
	CCN(CC)C(=S)N=S(C)(=O)C(C)c1ccc(C(F)(F)F)nc1 (stereo not drawn) [Compound 24]	80 to 100	
168 to 172	NC(=S)N=S1(=O)CCCC1c1ccc(Cl)nc1 (stereo not drawn) [Compound 36, N-[2-(6-chloropyridin-3-yl)-1-oxidotetrahydro-1H-1λ^4-thien-1-ylidene]thiourea]	80 to 100	
	CC(c1ccc(C(F)(F)F)nc1)S(C)(=O)=NC(=O)C(C)(C)C (stereo not drawn) [Compound 67, 2,2-dimethyl-N-(methyl(oxido){1-[6-(trifluoromethyl)pyridin-3-yl]ethyl}-λ^4-sulfanylidene)propanamide]	< 80	
157 to 159	CC(c1ccc(C(F)(F)F)nc1)S(C)(=O)=N/C(N)=N/O (stereo not drawn) [Compound 38, N″-hydroxy-N-(methyl(oxido){1-[6-(trifluoromethyl)pyridin-3-yl]ethyl}-λ^4-sulfanylidene)guanidine]	80 to 100	
	CC(c1ccc(C(F)(F)F)nc1)S(C)(=O)=NC(=S)NC(=O)c1ccco1 (stereo not drawn) [Compound 18]	80 to 100	
	CC(c1ccc(C(F)(F)F)nc1)S(C)(=O)=N/C(N)=N/OCCF (stereo not drawn) [Compound 59]	80 to 100	
	CC(c1ccc(C(F)(F)F)nc1)S(C)(=O)=N/C(N)=N/OCC1CC1 (stereo not drawn) [Compound 51]	80 to 100	

melting point [°C]	SMILES	pest or weed control at 200 ppm [1, 2] [%]	pest or weed control at 200 ppm ([1]; foliar) [%]
	CS(=O)(=N/C(N)=N/O)C(CC1CC1)c1ccc(Cl)nc1 (stereo not drawn) [Compound 40, N-[[1-(6-chloropyridin-3-yl)-2-cyclopropylethyl](methyl)oxido-λ^4-sulfanylidene]-N″-hydroxyguanidine]	< 80	
	CC(c1ccc(C(F)(F)F)nc1)S(C)(=O)=N/C(N)=N/OCCCF (stereo not drawn) [Compound 54]	80 to 100	
	COc1ccc(CN/C(N=S(C)(=O)C(C)c2ccc(C(F)(F)F)nc2)=N\OCc2ccc(OC)cc2)cc1 (stereo not drawn) [Compound 58]	80 to 100	
	COCCO/N=C(\N)N=S(C)(=O)C(C)c1ccc(C(F)(F)F)nc1 (stereo not drawn) [Compound 60]	80 to 100	
	CCOC(=O)CNC(=S)N=S(C)(=O)C(C)c1ccc(C(F)(F)F)nc1 (stereo not drawn) [Compound 12]	80 to 100	
131 to 134	CS(=O)(=NC(=O)Nc1ccc(C(F)(F)F)cc1)c1ccc(Cl)cc1 (stereo not drawn) [Compound 1, N-[(4-chlorophenyl)(methyl)oxido-λ^4-sulfanylidene]-N′-[4-(trifluoromethyl)phenyl]urea]		
	C=CCO/N=C(\N)N=S(C)(=O)C(C)c1ccc(C(F)(F)F)nc1 (stereo not drawn) [Compound 53]	80 to 100	
	CS(=O)(=N/C(N)=N/O)C(CC1CC1)c1ccc(C(F)(F)F)nc1 (stereo not drawn) [Compound 43, N-[{2-cyclopropyl-1-[6-(trifluoromethyl)pyridin-3-yl]ethyl}(methyl)oxido-λ^4-sulfanylidene]-N″-hydroxyguanidine]	80 to 100	
	CC(c1ccc(C(F)(F)F)nc1)S(C)(=O)=NC(=N)N (stereo not drawn) [Compound 45, N-(methyl(oxido){1-[6-(trifluoromethyl)pyridin-3-yl]ethyl}-λ^4-sulfanylidene)guanidine]	< 80	
	CS(=O)(=N/C(N)=N/O)C(C/C=C/Cl)c1ccc(Cl)nc1 (stereo not drawn) [Compound 41, N-[[(3E)-4-Chloro-1-(6-chloropyridin-3-yl)but-3-enyl](methyl)oxido-λ^4-sulfanylidene]-N″-hydroxyguanidine]	< 80	
	CC(c1ccc(C(F)(F)F)nc1)S(C)(=O)=N/C(=N/OCc1ccc(Cl)cc1)NCc1ccc(Cl)cc1 (stereo not drawn) [Compound 57]	< 80	
	CO/N=C(\N)N=S(C)(=O)C(C)c1ccc(C(F)(F)F)nc1 (stereo not drawn) [Compound 48]	80 to 100	
	COc1ccc(CO/N=C(\N)N=S(C)(=O)C(C)c2ccc(C(F)(F)F)nc2)cc1 (stereo not drawn) [Compound 47]	80 to 100	
	CC(c1ccc(C(F)(F)F)nc1)S(C)(=O)=NC(=S)NC(=O)c1ccc(Cl)cc1 (stereo not drawn) [Compound 16]	80 to 100	
	Cc1ccc(C(C)S(C)(=O)=NC(=S)NC(=O)OCC2c3ccccc3-c3ccccc32)cn1 (stereo not drawn) [Compound 32, 9H-fluoren-9-ylmethyl({methyl[1-(6-methylpyridin-3-yl)ethyl]oxido-λ^4-sulfanylidene}amino)carbonothioylcarbamate]		< 80
	CNC(=S)N=S(C)(=O)C(C)c1ccc(C(F)(F)F)nc1 (stereo not drawn) [Compound 13]	80 to 100	
	CC(c1ccc(C(F)(F)F)nc1)S(C)(=O)=NC(=S)N1CCCC1 (stereo not drawn) [Compound 25]	80 to 100	
	CC(c1ccc(C(F)(F)F)nc1)S(C)(=O)=N/C(N)=N/OCCCCF (stereo not drawn) [Compound 55]	80 to 100	
	CC(c1ccc(C(F)(F)F)nc1)S(C)(=O)=NC(=S)NCCN1CCOCC1 (stereo not drawn) [Compound 11]	80 to 100	
	CC(c1ccc(C(F)(F)F)nc1)S(C)(=O)=N/C(N)=N/OCC1CO1 (stereo not drawn) [Compound 61]	80 to 100	
	CC(c1ccc(C(F)(F)F)nc1)S(C)(=O)=NC(=O)NC(=O)CCl (stereo not drawn) [Compound 3, N-(chloroacetyl)-N′-(methyl(oxido){1-[6-(trifluoromethyl)pyridin-3-yl]ethyl}-λ^4-sulfanylidene)urea]	80 to 100	
	CC(c1ccc(C(F)(F)F)nc1)S(C)(=O)=NC(=O)C(F)F (stereo not drawn) [Compound 66, 2,2-difluoro-N-(methyl(oxido){1-[6-(trifluoromethyl)pyridin-3-yl]ethyl}-λ^4-sulfanylidene)acetamide]	80 to 100	
	CC(c1ccc(C(F)(F)F)nc1)S(C)(=O)=N/C(N)=N/OCCC=C(F)F (stereo not drawn) [Compound 56]	80 to 100	
	CC(c1ccc(C(F)(F)F)nc1)S(C)(=O)=N/C(N)=N/OCC1CC1(F)F (stereo not drawn) [Compound 52]	80 to 100	
	CC(c1ccc(C(F)(F)F)nc1)S(C)(=O)=NC(=S)N1CCOCC1 (stereo not drawn) [Compound 27]	80 to 100	

Reference: patent US8445689B2, “Pesticides” (Dow AgroSciences, LLC., priority 2008, dated 2013)
